From patent publication US20250235460A1, “COMBINATION THERAPY USING GLUCOSE-DEPENDENT INSULINOTROPIC POLYPEPTIDE RECEPTOR ANTAGONIST COMPOUNDS AND GLP-1 RECEPTOR AGONIST COMPOUNDS” (Pfizer Inc., priority 2024, published 2025)
Counter-ions that a name gives are not always drawn.

Key:
human GLP-1R [1] = target: human GLP-1R (Homo sapiens, UniProt P43220, G168S); experiment: CHO GLP-1R Clone H6 cAMP HTRF agonist assay (Assay 1, high receptor density); format: cell-based; conditions: for EC50: geometric mean; for Emax: CHO GLP-1R clone H6, arithmetic mean, relative to saturating GLP-1 (1 μM), read-out: Assay 1 Emax (%)
Chain of human GLP-1R (Homo sapiens, UniProt P43220, G168S) (P43220 24-463 G168S): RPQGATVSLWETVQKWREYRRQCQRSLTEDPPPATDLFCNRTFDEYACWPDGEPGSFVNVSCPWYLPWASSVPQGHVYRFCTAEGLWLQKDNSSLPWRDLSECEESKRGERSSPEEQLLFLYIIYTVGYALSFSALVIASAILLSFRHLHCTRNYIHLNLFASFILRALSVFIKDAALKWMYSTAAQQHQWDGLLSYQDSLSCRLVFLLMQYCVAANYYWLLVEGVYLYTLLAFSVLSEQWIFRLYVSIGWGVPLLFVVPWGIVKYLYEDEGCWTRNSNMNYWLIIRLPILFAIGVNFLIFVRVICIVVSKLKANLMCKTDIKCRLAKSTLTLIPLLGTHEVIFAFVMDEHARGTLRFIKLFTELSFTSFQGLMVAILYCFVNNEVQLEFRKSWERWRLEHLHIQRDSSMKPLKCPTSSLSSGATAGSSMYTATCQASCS
Summary of the method: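 Averaging differs by parameter: a geometric mean for EC50 and an arithmetic mean for Emax, each over the stated replicate number.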

human GLP-1R [2] = target: human GLP-1R (Homo sapiens, UniProt P43220, L260F); experiment: CHO GLP-1R Clone C6 cAMP HTRF agonist assay (Assay 2, low receptor density); format: cell-based; conditions: for EC50: geometric mean; for Emax: CHO GLP-1R clone C6, arithmetic mean, relative to saturating GLP-1 (1 μM)
Chain of human GLP-1R (Homo sapiens, UniProt P43220, L260F) (P43220 24-463 L260F): as the sequence (P43220 24-463 G168S) above, with S145G, L237F counted along it
Text: In Table 5 and Table 6, assay data are presented to two (2) significant figures as the geometric mean (EC50s) and arithmetic mean (Emax) based on the number of replicates listed (Number). A blank cell means there was no data for that Example or the Emax was not calculated.

SMILES | EC50 (human GLP-1R [1]; CHO GLP-1R clone H6, cAMP HTRF) | Emax (human GLP-1R [1]) | EC50 (human GLP-1R [2]; CHO GLP-1R clone C6, cAMP HTRF) | Emax (human GLP-1R [2]) | EC50 (human GLP-1R [1]; CHO GLP-1R clone, cAMP HTRF) | EC50 (human GLP-1R [2]; CHO GLP-1R clone, low receptor density, cAMP HTRF)
O=C(O)c1ccc2nc(CN3CCN(c4cccc(OCc5ccc(Cl)cc5F)n4)CC3)n(Cc3ncco3)c2c1 [Compound 151B, 2-[(4-{6-[(4-chloro-2-fluorobenzyl)oxy]pyridin-2-yl}piperazin-1-yl)methyl]-1-(1,3-oxazol-2-ylmethyl)-1H-benzimidazole-6-carboxylic acid] | 22 nM | 87% | 280 nM | – | – | –
O=C(O)c1ccc2nc(CN3CCC(c4cccc(OCc5ccc(Cl)cc5F)n4)CC3)n(C[C@@H]3CCO3)c2n1 [Compound 122B, 2-[(4-{6-[(4-chloro-2-fluorobenzyl)oxy]pyridin-2-yl}piperidin-1-yl)methyl]-3-[(2S)-oxetan-2-ylmethyl]-3H-imidazo[4,5-b]pyridine-5-carboxylic acid] | 1.5 nM | 86% | 14 nM | 82% | – | –
COCCn1c(C2CC23CCC(c2cccc4c2OC(C)(c2ccc(Cl)cc2F)O4)CC3)nc2ccc(C(=O)O)cc21 (centres unmarked) [Compound 29B, 2-{6-[2-(4-chloro-2-fluorophenyl)-2-methyl-1,3-benzodioxol-4-yl]-6-azaspiro[2.5]oct-1-yl}-1-(2-methoxyethyl)-1H-benzimidazole-6-carboxylic acid, DIAST-Z2, trifluoroacetate salt] | – | – | – | – | > 20000 nM | > 20000 nM
CO[C@@H]1CCC[C@@H]1Cn1c(CN2CCC(c3cccc(OCc4ccc(Cl)cc4F)n3)CC2)nc2ccc(C(=O)O)cc21 (racemic) [Compound 196B, rac-2-[(4-{6-[(4-chloro-2-fluorobenzyl)oxy]pyridin-2-yl}piperidin-1-yl)methyl]-1-{[(1S,2S)-2-methoxycyclopentyl]methyl}-1H-benzimidazole-6-carboxylic acid] | 4.1 nM | 67% | 170 nM | 75% | – | –
Cn1c(CN2CCC(c3cccc(OCc4ccc(Cl)cc4F)n3)CC2)nc2cc(F)c(C(=O)O)cc21 [Compound 206B, 2-[(4-{6-[(4-chloro-2-fluorobenzyl)oxy]pyridin-2-yl}piperidin-1-yl)methyl]-5-fluoro-1-methyl-1H-benzimidazole-6-carboxylic acid] | 38 nM | – | 760 nM | 91% | – | –
N#Cc1ccc(COc2cccc(C3CCN(Cc4nc5ccc(C(=O)O)cc5n4C[C@@H]4CCCO4)CC3)n2)c(F)c1 [Compound 124B, 2-[(4-{6-[(4-cyano-2-fluorobenzyl)oxy]pyridin-2-yl}piperidin-1-yl)methyl]-1-[(2S)-tetrahydrofuran-2-ylmethyl]-1H-benzimidazole-6-carboxylic acid] | 6.4 nM | 90% | 110 nM | 94% | – | –
C[C@H]1CN(c2ccc(F)c(OCc3ccc(F)cc3F)n2)CCN1Cc1nc2ccc(C(=O)O)cc2n1C[C@@H]1CCO1 [Compound 133B, 2-{[(2S)-4-{6-[(2,4-difluorobenzyl)oxy]-5-fluoropyridin-2-yl}-2-methylpiperazin-1-yl]methyl}-1-[(2S)-oxetan-2-ylmethyl]-1H-benzimidazole-6-carboxylic acid] | 190 nM | 91% | 1400 nM | 47% | – | –
O=C(O)c1ccc2nc(CN3CCC(c4cccc(OCc5ccc(Cl)cc5F)n4)CC3)n(C[C@@H]3CCCO3)c2c1 [Compound 116B, 2-[(4-{6-[(4-chloro-2-fluorobenzyl)oxy]pyridin-2-yl}piperidin-1-yl)methyl]-1-[(2S)-tetrahydrofuran-2-ylmethyl]-1H-benzimidazole-6-carboxylic acid] | 930 nM | 86% | 9000 nM | 100% | – | –
C[C@H]1CN(c2cccc(OCc3ccc(C#N)cc3F)n2)CCN1Cc1nc2ccc(C(=O)O)nc2n1C[C@@H]1CCO1 [Compound 137B, 2-{[(2S)-4-{6-[(4-cyano-2-fluorobenzyl)oxy]pyridin-2-yl}-2-methylpiperazin-1-yl]methyl}-3-[(2S)-oxetan-2-ylmethyl]-3H-imidazo[4,5-b]pyridine-5-carboxylic acid] | 90 nM | 76% | 1800 nM | 89% | – | –
N#Cc1ccc(COc2nc(C3CCN(Cc4nc5ccc(C(=O)O)cc5n4C[C@@H]4CCO4)CC3)ccc2F)cc1 [Compound 127B, 2-[(4-{6-[(4-cyanobenzyl)oxy]-5-fluoropyridin-2-yl}piperidin-1-yl)methyl]-1-[(2S)-oxetan-2-ylmethyl]-1H-benzimidazole-6-carboxylic acid] | 4.9 nM | 77% | 75 nM | 83% | – | –

The remaining lines, values ahead:

EC50 (human GLP-1R [1]; CHO GLP-1R clone H6, cAMP HTRF) | Emax (human GLP-1R [1]) | EC50 (human GLP-1R [2]; CHO GLP-1R clone C6, cAMP HTRF) | Emax (human GLP-1R [2]) | EC50 (human GLP-1R [1]; CHO GLP-1R clone, cAMP HTRF) | EC50 (human GLP-1R [2]; CHO GLP-1R clone, low receptor density, cAMP HTRF) | SMILES
9.4 nM | 69% | 94 nM | 92% | – | – | CCN1CCC(Cn2c(CN3CCC(c4cccc(OCc5ccc(Cl)cc5F)n4)CC3)nc3ccc(C(=O)O)cc32)C1 (centres unmarked) [Compound 278B, 2-[(4-{6-[(4-chloro-2-fluorobenzyl)oxy]pyridin-2-yl}piperidin-1-yl)methyl]-1-[(1-ethylpyrrolidin-3-yl)methyl]-1H-benzimidazole-6-carboxylic acid]
120 nM | 80% | 1500 nM | 92% | – | – | O=C(O)c1ccc2nc(CN3CCC(c4cccc(OCc5ccc(Cl)cc5F)n4)CC3)n(C3CCOC3)c2c1 (centres unmarked) [Compound 301B, 2-[(4-{6-[(4-chloro-2-fluorobenzyl)oxy]pyridin-2-yl}piperidin-1-yl)methyl]-1-(tetrahydrofuran-3-yl)-1H-benzimidazole-6-carboxylic acid]
2 nM | 82% | 32 nM | 79% | – | – | N#Cc1ccc(COc2cccc(C3CCN(Cc4nc5ccc(C(=O)O)nc5n4Cc4cnco4)CC3)n2)c(F)c1 [Compound 248B, 2-[(4-{6-[(4-cyano-2-fluorobenzyl)oxy]pyridin-2-yl}piperidin-1-yl)methyl]-3-(1,3-oxazol-5-ylmethyl)-3H-imidazo[4,5-b]pyridine-5-carboxylic acid]
1.7 nM | 82% | 41 nM | 99% | – | – | COCCn1c(CN2CCC(c3cccc(OCc4ccc(Cl)cc4F)n3)CC2)nc2ncc(C(=O)O)c(C)c21 [Compound 208B, 2-[(4-{6-[(4-chloro-2-fluorobenzyl)oxy]pyridin-2-yl}piperidin-1-yl)methyl]-1-(2-methoxyethyl)-7-methyl-1H-imidazo[4,5-b]pyridine-6-carboxylic acid]
0.3 nM | 80% | 4.4 nM | 95% | – | – | Cn1c(CN2CCC(c3cccc(OCc4cccc(C#N)c4)n3)CC2)nc2ccc(C(=O)O)cc21 [Compound 231B, 2-[(4-{6-[(3-cyanobenzyl)oxy]pyridin-2-yl}piperidin-1-yl)methyl]-1-methyl-1H-benzimidazole-6-carboxylic acid]
15 nM | 83% | 230 nM | 110% | – | – | CN1CCC(CCn2c(CN3CCC(c4cccc(OCc5ccc(Cl)cc5F)n4)CC3)nc3ccc(C(=O)O)cc32)CC1 [Compound 282B, 2-[(4-{6-[(4-chloro-2-fluorobenzyl)oxy]pyridin-2-yl}piperidin-1-yl)methyl]-1-[2-(1-methylpiperidin-4-yl)ethyl]-1H-benzimidazole-6-carboxylic acid]
18 nM | 82% | 270 nM | 83% | – | – | CN1CCCC1CCn1c(CN2CCC(c3cccc(OCc4ccc(Cl)cc4F)n3)CC2)nc2ccc(C(=O)O)cc21 (centres unmarked) [Compound 284B, 2-[(4-{6-[(4-chloro-2-fluorobenzyl)oxy]pyridin-2-yl}piperidin-1-yl)methyl]-1-[2-(1-methylpyrrolidin-2-yl)ethyl]-1H-benzimidazole-6-carboxylic acid]
5.2 nM | 66% | 120 nM | 80% | – | – | COCCn1c(CN2CCN(c3cccc(OCc4ccc(Cl)cc4F)n3)C[C@@H]2C(C)C)nc2ccc(C(=O)O)cc21 [Compound 351B, 2-{[(2S)-4-{6-[(4-chloro-2-fluorobenzyl)oxy]pyridin-2-yl}-2-(propan-2-yl)piperazin-1-yl]methyl}-1-(2-methoxyethyl)-1H-benzimidazole-6-carboxylic acid]
1.6 nM | 84% | 35 nM | 78% | – | – | C[C@H]1CN(c2cccc(OCc3ccc(C#N)cc3F)n2)CCN1Cc1nc2ccc(C(=O)O)cc2n1Cc1cncn1C [Compound 249B, 2-{[(2S)-4-{6-[(4-cyano-2-fluorobenzyl)oxy]pyridin-2-yl}-2-methylpiperazin-1-yl]methyl}-1-[(1-methyl-1H-imidazol-5-yl)methyl]-1H-benzimidazole-6-carboxylic acid]
15 nM | 83% | 270 nM | 88% | – | – | CN1CCC(Cn2c(CN3CCC(c4cccc(OCc5ccc(Cl)cc5F)n4)CC3)nc3ccc(C(=O)O)cc32)CC1 [Compound 283B, 2-[(4-{6-[(4-chloro-2-fluorobenzyl)oxy]pyridin-2-yl}piperidin-1-yl)methyl]-1-[(1-methylpiperidin-4-yl)methyl]-1H-benzimidazole-6-carboxylic acid]
5 nM | 82% | 41 nM | 77% | – | – | CC(c1cnn(C)n1)n1c(CN2CCC(c3cccc(OCc4ccc(Cl)cc4F)n3)CC2)nc2ccc(C(=O)O)cc21 (centres unmarked) [Compound 335B, 2-[(4-{6-[(4-chloro-2-fluorobenzyl)oxy]pyridin-2-yl}piperidin-1-yl)methyl]-1-[1-(2-methyl-2H-1,2,3-triazol-4-yl)ethyl]-1H-benzimidazole-6-carboxylic acid]
